One assay concerns the target EP4 (Homo sapiens (Human), UniProt P35408). Nature of the assay: hEP4 cAMP assay (BT549 breast cancer cells, HTRF cAMP). The format is cell-based. Particulars: antagonistic activity; mean values where measured multiple times. How it is done: Plate is pre-incubated 45 minutes at room temperature. Subsequently, 2.5 microliters of PGE2 (final conc. 6 nM) are transferred into the assay plate. Plate is incubated 30 minutes at room temperature.

The target of the next assay is EP2 (Homo sapiens (Human), UniProt P43116).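 Further: antagonism of PGE2-stimulated cAMP accumulation in SF295 human glioblastoma cells with endogenous EP2, cAMP read by HTRF, expressed relative to DMSO control.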
Sequence of EP2 (P43116 whole entry): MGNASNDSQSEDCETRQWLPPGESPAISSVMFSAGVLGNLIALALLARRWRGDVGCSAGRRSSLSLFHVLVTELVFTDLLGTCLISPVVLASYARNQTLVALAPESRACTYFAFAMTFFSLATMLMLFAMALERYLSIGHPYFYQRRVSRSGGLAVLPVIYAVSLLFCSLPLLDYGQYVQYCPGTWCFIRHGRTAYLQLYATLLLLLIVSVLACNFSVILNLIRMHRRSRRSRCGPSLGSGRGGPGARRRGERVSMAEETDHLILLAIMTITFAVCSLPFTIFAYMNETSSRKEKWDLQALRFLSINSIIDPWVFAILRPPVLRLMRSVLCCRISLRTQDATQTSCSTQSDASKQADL

The values that follow come from US12011444B2, “N-substituted indole derivatives as PGE2 receptor modulators” (Idorsia Pharmaceuticals Ltd, priority 2015, dated 2024).

Each structure is given as a SMILES string.

Sequence of EP4 (P35408 whole entry): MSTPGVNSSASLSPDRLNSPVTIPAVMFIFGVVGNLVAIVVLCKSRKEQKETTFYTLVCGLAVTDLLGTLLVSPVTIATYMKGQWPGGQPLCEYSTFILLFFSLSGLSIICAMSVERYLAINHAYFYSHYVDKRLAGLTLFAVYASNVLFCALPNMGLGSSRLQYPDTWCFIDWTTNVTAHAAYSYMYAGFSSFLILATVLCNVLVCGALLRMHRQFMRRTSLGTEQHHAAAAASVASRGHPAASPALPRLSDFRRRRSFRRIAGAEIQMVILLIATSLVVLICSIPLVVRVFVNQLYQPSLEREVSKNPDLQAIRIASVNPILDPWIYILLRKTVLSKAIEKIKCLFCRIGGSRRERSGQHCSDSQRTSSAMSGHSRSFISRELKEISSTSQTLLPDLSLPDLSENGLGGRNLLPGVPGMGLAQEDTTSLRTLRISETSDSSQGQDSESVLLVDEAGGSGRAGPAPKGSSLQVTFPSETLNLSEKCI

`CCNc1cc(-c2cc(NCCn3c(C)cc4c(OC)ccc(Cl)c43)ncn2)ccc1C(=O)O` [compound 396]: the IC50 stood at 65 nM at EP4 and 1 nM against EP2.
Taken in the same sequence, the figures for `CCNc1cc(-c2cc(NCCn3c(C)cc4c(OC)ccc(F)c43)ncn2)ccc1C(=O)O` [compound 397] were 20 nM and 1 nM.
With `CCNc1cc(-c2cc(NCCn3c(C)cc4c(OC)cccc43)ncn2)cc(F)c1C(=O)O` [compound 398], the IC50 at EP4 is 178 nM; on EP2, 3 nM.
Taken in the same sequence, the figures for `CCNc1cc(-c2cc(NCCn3c(C)cc4c(F)ccc(OC)c43)ncn2)ccc1C(=O)O` [compound 399] were 483 nM and 17 nM.
Taken in the same sequence, the figures for `CCCOc1cc(-c2cc(NCCn3c(C)cc4c(OC)cccc43)ncn2)ccc1C(=O)O` [compound 400] were 418 nM and 6 nM.
The matching figures for `COc1cc(-c2cc(NCCn3c(C)cc4c(OC)ccc(F)c43)ncn2)cc(Cl)c1C(=O)O` [compound 401]: 182 nM and 19 nM.
For the compound `CCOc1cc(-c2cc(NCCn3c(C)cc4c(OC)cc(Cl)cc43)ncn2)ccc1C(=O)O` [compound 402], the results for the concentration for half-maximal inhibition (IC50) against EP4 and at EP2 were 159 nM and 10 nM, respectively.
The matching figures for `CCOc1cc(-c2cc(NCCn3c(C)cc4c(OC)cc(F)cc43)ncn2)ccc1C(=O)O` [compound 403]: 128 nM and 20 nM.
Taken in the same sequence, the figures for `COc1cc(-c2cc(NCCn3c(C)cc4c(OC)ccc(Cl)c43)ncn2)cc(C)c1C(=O)O` [compound 404] were 448 nM and 96 nM.
On to `CCOc1cc(-c2cc(NCCn3c(C)cc4c(OC)ccc(Cl)c43)ncn2)ccc1C(=O)O` [compound 405], for which the values for the IC50 at EP4 and on EP2 were 356 nM and 18 nM, respectively.
The matching figures for `COc1cc(-c2cc(NCCn3c(C)cc4c(OC)ccc(F)c43)ncn2)cc(C)c1C(=O)O` [compound 406]: 266 nM and 47 nM.
Taken in the same sequence, the figures for `CCOc1cc(-c2cc(NCCn3c(C)cc4c(OC)cccc43)ncn2)cc(F)c1C(=O)O` [compound 407] were 636 nM and 15 nM.
Taken in the same sequence, the figures for `CCOc1cc(-c2cc(NCCn3c(C)cc4c(OC)cc(F)c(F)c43)ncn2)sc1C(=O)O` [compound 408] were 3 nM and 4 nM.
Consider `CCOc1cc(-c2cc(NCCn3c(C)cc4c(OC)c(Cl)cc(F)c43)ncn2)sc1C(=O)O` [compound 409], for which the values for the concentration for half-maximal inhibition (IC50) against EP4 and on EP2 were 146 nM and 345 nM, respectively.
Turning to `Cc1ccc(Cl)c2c1cc(C)n2CCNc1cc(-c2ccc(C(=O)O)c(SC(C)C)c2)ncn1` [compound 410], the figures for the IC50 against EP4 and at EP2 were 390 nM and 51 nM, respectively.
The matching figures for `Cc1cc2c(F)c(F)ccc2n1CCNc1cc(-c2ccc(C(=O)O)c(CC(C)C)c2)ncn1` [compound 411]: 443 nM and 20 nM.
Consider `CCCc1cc(-c2cc(NCCn3c(C)cc4c(C)cc(F)cc43)ncn2)cc(Cl)c1C(=O)O` [compound 412], for which the figures for the IC50 at EP4 and at EP2 were 79 nM and 36 nM, respectively.
The matching figures for `CCCc1cc(-c2cc(NCCn3c(C)cc4c(C)ccc(F)c43)ncn2)cc(Cl)c1C(=O)O` [compound 413]: 55 nM and 29 nM.
The matching figures for `CCCc1cc(-c2cc(NCCn3c(C)cc4cc(C)cc(F)c43)ncn2)cc(Cl)c1C(=O)O` [compound 414]: 199 nM and 35 nM.
The matching figures for `CCCc1cc(-c2cc(NCCn3c(C)cc4c(C)cc(F)cc43)ncn2)cc(F)c1C(=O)O` [compound 415]: 153 nM and 53 nM.
For `CCCc1cc(-c2cc(NCCn3c(C)cc4c(C)ccc(F)c43)ncn2)cc(F)c1C(=O)O` [compound 416], the IC50 at EP4 was found to be 99 nM; on EP2 it was 14 nM.
Taken in the same sequence, the figures for `CCCc1cc(-c2cc(NCCn3c(C)cc4cc(C)cc(F)c43)ncn2)cc(F)c1C(=O)O` [compound 417] were 396 nM and 28 nM.
The matching figures for `Cc1cc2c(Cl)cc(Cl)cc2n1CCNc1cc(-c2ccc(C(=O)O)c(CC(C)C)c2)ncn1` [compound 418]: 691 nM and 74 nM.
The matching figures for `Cc1cc2c(Cl)cc(F)cc2n1CCNc1cc(-c2ccc(C(=O)O)c(CC(C)C)c2)ncn1` [compound 419]: 403 nM and 90 nM.
With `Cc1cc(F)c(F)c2c1cc(C)n2CCNc1cc(-c2cc(C(F)(F)F)c(C(=O)O)s2)ncn1` [compound 420], the IC50 stood at 93 nM against EP4 and 95 nM against EP2.
Regarding `Cc1cc(Cl)cc2c1cc(C)n2CCNc1cc(-c2ccc(C(=O)O)c(CC(C)C)c2)ncn1` [compound 421], the values for the IC50 at EP4 and on EP2 were 342 nM and 60 nM, respectively.
The matching figures for `Cc1cc(F)cc2c1cc(C)n2CCNc1cc(-c2ccc(C(=O)O)c(CC(C)C)c2)ncn1` [compound 422]: 148 nM and 34 nM.
Taken in the same sequence, the figures for `Cc1nc(NCCn2c(C)cc3c(C)cc(F)cc32)cc(-c2cc(C(F)(F)F)c(C(=O)O)s2)n1` [compound 423] were 35 nM and 44 nM.
The matching figures for `Cc1cc2c(Cl)ccc(Cl)c2n1CCNc1cc(-c2ccc(C(=O)O)c(SC(C)C)c2)ncn1` [compound 424]: 257 nM and 31 nM.
In the case of `CCCc1cc(-c2cc(NCCn3c(C)cc4cc(Cl)cc(F)c43)ncn2)cc(F)c1C(=O)O` [compound 425], the values for the IC50 at EP4 and at EP2 were 521 nM and 73 nM, respectively.
The matching figures for `CCCc1cc(-c2cc(NCCn3c(C)cc4cc(F)cc(Cl)c43)ncn2)cc(Cl)c1C(=O)O` [compound 426]: 759 nM and 17 nM.
The matching figures for `CCCc1cc(-c2cc(NCCn3c(C)cc4cc(Cl)cc(F)c43)ncn2)cc(Cl)c1C(=O)O` [compound 427]: 240 nM and 85 nM.
With `COc1cccc2c1cc(C)n2CCNc1cc(-c2ccc(C(=O)O)c(CC(C)C)c2)ncn1` [compound 428], the IC50 came to 164 nM against EP4 and 11 nM against EP2.
The matching figures for `CCc1cc(-c2cc(NCCn3c(C)cc4c(OC)ccc(Cl)c43)ncn2)cc(F)c1C(=O)O` [compound 429]: 775 nM and 25 nM.
Take `CCOc1cc(-c2cc(NCCn3c(C)cc4c(C)c(F)cc(F)c43)ncn2)ccc1C(=O)O` [compound 430]: the half-inhibitory concentration (IC50) against EP4 was 88 nM; at EP2, 9 nM.
Taken in the same sequence, the figures for `CCOc1cc(-c2cc(NCCn3c(C)cc4c(C)cc(F)c(F)c43)ncn2)ccc1C(=O)O` [compound 431] were 191 nM and 51 nM.
In the case of `CCOc1cc(-c2cc(NCCn3c(C)cc4c(C)cc(F)cc43)ncn2)cc(Cl)c1C(=O)O` [compound 432], the IC50 against EP4 came to 117 nM; against EP2, 21 nM.
Taken in the same sequence, the figures for `CCOc1cc(-c2cc(NCCn3c(C)cc4c(C)ccc(F)c43)ncn2)cc(Cl)c1C(=O)O` [compound 433] were 108 nM and 61 nM.
The matching figures for `CCOc1cc(-c2cc(NCCn3c(C)cc4c(C)ccc(F)c43)ncn2)cc(F)c1C(=O)O` [compound 435]: 159 nM and 13 nM.
